This assay deals with T1, hyaluronidase of bovine origin (Bos taurus, UniProt Q2YDK3).
T1 sequence (Q2YDK3 36-553): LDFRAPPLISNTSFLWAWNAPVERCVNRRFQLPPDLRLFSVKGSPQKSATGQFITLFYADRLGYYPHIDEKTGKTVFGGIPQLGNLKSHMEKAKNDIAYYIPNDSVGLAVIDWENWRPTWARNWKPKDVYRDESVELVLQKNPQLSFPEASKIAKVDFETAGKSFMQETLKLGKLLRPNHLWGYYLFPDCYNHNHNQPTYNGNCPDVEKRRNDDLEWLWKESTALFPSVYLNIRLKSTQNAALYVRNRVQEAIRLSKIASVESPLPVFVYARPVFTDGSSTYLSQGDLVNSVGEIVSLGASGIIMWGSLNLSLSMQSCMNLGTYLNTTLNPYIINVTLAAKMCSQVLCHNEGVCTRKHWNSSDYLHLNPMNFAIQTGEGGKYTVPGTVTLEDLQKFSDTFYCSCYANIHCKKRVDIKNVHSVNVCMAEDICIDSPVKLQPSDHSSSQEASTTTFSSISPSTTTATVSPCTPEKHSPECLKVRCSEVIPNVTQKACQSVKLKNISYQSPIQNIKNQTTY
Nature of the assay: Inhibitory effect on hyaluronidase activity of bovine origin (turbidimetry at 600 nm). Format: biochemical. The following applies: GLZ pre-incubated for 20 minutes at 37° C. with the enzyme. As to the method:
Determination of the IC50 of GLZ, with or without Pre-Incubation at 37° C.:
GLZ, at various concentrations, is or is not pre-incubated for 20 minutes at 37° C. in the presence of the enzyme. The enzyme reaction is triggered by adding the hyaluronic acid solution (time T0). After incubation for 20 minutes, the non-hydrolyzed hyaluronic acid is precipitated by adding acidic bovine albumin solution.
In order to verify that the pre-incubation step has no effect on the stability of the hyaluronidase, an aliquot of a solution of the enzyme is placed at 37° C. for 20 minutes. Another aliquot is conserved in an ice bath for 19 minutes, and is then incubated at 37° C. for 1 minute. A solution of hyaluronic acid is then added to each aliquot (T0). After incubation for 15, or 45 minutes, the non-hydrolyzed hyaluronic acid is precipitated by addition of acidic bovine albumin solution.
Measurement of the Hyaluronidase Activity of Bovine Origin:
After the precipitation step, the turbidimetry of the solutions is determined on a spectrophotometer at a wavelength of 600 nm. The optical density (OD) of these solutions is subtracted from the OD of a control solution of hyaluronic acid (of the same concentration) not hydrolyzed by the enzyme. This difference in OD, which is inversely proportional to the concentration of hyaluronic acid, is used to measure the activity of the hyaluronidase.

The structures appear in SMILES notation.

By IC50 is commonly meant the concentration that gives 50% inhibition. High values mean weaker potency in that assay, low ones greater potency in that assay. On to `CC1(C)[C@@H](O[C@H]2O[C@H](C(=O)O)[C@@H](O)[C@H](O)[C@H]2O[C@@H]2O[C@H](C(=O)O)[C@@H](O)[C@H](O)[C@H]2O)CC[C@]2(C)[C@H]3C(=O)C=C4[C@@H]5C[C@@](C)(C(=O)O)CC[C@]5(C)CC[C@@]4(C)[C@]3(C)CC[C@@H]12` [GLZ, glycyrrhizin], for which the half-maximal inhibitory concentration (IC50) was 350 µM.

The values above are taken from US9452126B2, “Pharmaceutical/cosmetic compositions comprising hyaluronic acid and treatment of dermatological conditions therewith” (Galderma Research & Development, priority 2005, dated 2016).
